Measurements from US4309407A, “Alkenyl-substituted thienylalkanecarboxylic acids and derivatives thereof” (A. Nattermann & Cie. GmbH, priority 1979, dated 1982).

How the values were obtained:
rats = assay: Ulcer-Inducing Effect on rats; format: in vivo; details: rat
Text: 4. Ulcer-Inducing Effect on rats [methodology according to W. J. R. Whittle, Brit. J. Pharmacol. 55, 242-3 (1975)].

Rat Paw Edema = Rat Paw Edema Test; format: in vivo
Text: 1. Rat Paw Edema Test [methodology as per Hillebrecht, Arzneim.-Forsch (4), 607 (1954)].

Adjuvans Arthritis = Adjuvans Arthritis Test, Rat, p.o.; format: in vivo; details: 0.1 mg/kg p.o.
Text: 3. Adjuvans Arthritis Test, Rat, p.o. [methodology as per C. N. Pearson, Proc. Soc. Exp. Biol. 91, 95-101 (1956)].

granuloma = assay: Granuloma Test (Cotton Pellet Test); format: in vivo, rat
Text: 2. Granuloma Test (Cotton Pellet Test) [methodology as per R. Meier et al., Experientia 6, 469 (1950)]

Compound | Ulcer-inducing effect (rats; in vivo, 1 mg/kg) | Ulcer-inducing effect (rats; in vivo, 10 mg/kg) | Ulcer-inducing effect (rats; in vivo, 100 mg/kg) | Inhibiting effect (%) (Rat Paw Edema; 0.1 mg/kg per os) | Inhibiting effect (%) (Rat Paw Edema; dose printed ".0" mg/kg per os) | Inhibiting effect (%) (Adjuvans Arthritis; 14th day p.i.) | Inhibiting effect (%) (Adjuvans Arthritis; 17th day p.i.) | Decrease in weight of granuloma (%) (granuloma; rat dose 0.1 mg/kg per os) | Decrease in weight of granuloma (%) (granuloma; rat dose 1.0 mg/kg per os) | Ulcer-inducing effect (rats; 3.2 mg/kg per os) | Ulcer-inducing effect (rats; 5.6 mg/kg per os) | Ulcer-inducing effect (rats; 7.5 mg/kg per os) | Inhibiting effect (%) (Rat Paw Edema; 3.2 mg/kg per os) | Inhibiting effect (%) (Rat Paw Edema; 5.6 mg/kg per os) | Decrease in weight of granuloma (%) (granuloma; rat dose 3.2 mg/kg per os)
CCCCCC(=O)C=Cc1ccc(CCCCCCCCC(=O)OC)s1 [Example 5, 9-[5-(3-oxooct-1-enyl)thien-2-yl]nonanoic acid methyl ester] | 0 | 0 | 0 | -26 | -38 | -28 | -35 | -24 | -13 |  |  |  |  |  | 
COc1ccc2c(c1)c(CC(=O)O)c(C)n2C(=O)c1ccc(Cl)cc1 [Indomethacin, indomethacin] |  |  |  |  |  | -29 | -37 | -21 |  | ++ | +++ | +++ | -25 | -45 | -27
